Data reported in patent US8742123B2, “HIV integrase inhibitors from pyridoxine” (TaiMed Biologics, Inc., priority 2008, dated 2014).
pEC50, pIC50, pKi: −log10 of the molar value. Where two headings read alike, the source gives them in different places.

What was measured:
[1] = pharmacokinetic (PK) profile in rats; type: in vivo; details: female Sprague-Dawley rats, 5 mg/kg intravenously, 50 mg/kg orally, plasma LC/MS/MS
Experimental: Female Sprague-Dawley rats were randomly selected and assigned to two groups. A group of 13 rats were administered 5 mg/kg of compound 2 intravenously. A second group of 8 rats were administered 50 mg/kg of compound 2 orally. Following the dosing, blood was collected at 7 different time points. Plasma samples obtained from the blood samples were analyzed by LC/MS/MS and the bioavailability of compound 2 was determined.

[2] = human liver microsome stability; type: in vitro ADME; details: pH 7.4, 1 μM compound
Experimental: After pre-incubation, the assay was started by the addition of 1 μM of compound. Samples were taken after 0, 15, 30, 60, 90 and 120 minutes of incubation (Fisher M B, Drug Metabolism and Disposition, 2000, 28, 560-566). GraphPad Prism software was used for data analysis. The results, showing that the compounds of the invention are metabolically stable in Human liver microsomes, are provided in Table 7 below.

HIV-1 isolate 91US005 = assay: acute infection assay in PHA-stimulated PBMCs, supernatant RT activity; type: cell-based; details: Human immunodeficiency virus 1, PBMC, 144 h, HIV-1 isolate 91US005, 6 day incubation
Experimental: (§1) Acute infection assays using fresh human phytohemagglutinin (PHA)-stimulated peripheral blood mononuclear cells (PBMCs) were carried out. PBMCs were stimulated with IL-2 and infected with one of two wild-type drug-sensitive clinical HIV-1 isolates. The strains HIV-1 used for the infections, 91US005 (primary R5 strain of HIV-1) and 94US33931N, are both Group M, Subtype B viruses. Antiviral activity was determined as a reduction in supernatent reverse transcriptase (RT) activity after a 6 day incubation.

HIV-1 isolate 94US33931N = assay: as above; type: cell-based; details: Human immunodeficiency virus 1, PBMC, 144 h, 6 day incubation
Experimental: as §1

[3] = biological target: T1, recombinant HIV-1 integrase (Human immunodeficiency virus type 1 group M subtype B, UniProt P12497); assay: integrase strand transfer assay; type: biochemical; details: compounds added after assembly, 10% DMSO, read-out: ST IC50
T1 construct: Recombinant integrase (250 ng/well) was assembled onto the immobilized donor oligonucleotide
Experimental: IC50 was determined for the compounds of the inventions based on data generated in strand transfer assays. The IC50 is a measure of the ability of the compounds tested to inhibit the integration of 3′-processed oligonucleotides by recombinant HIV-1 integrase.
Strand transfer assays were performed essentially as described in Hazuda, D. J.; Felock, P.; Hastings, J. C.; Pramanik, B.; Wolfe, A. J. Virol. 1997, 71, 7005-7011). Donor DNA (1.5 pmol/well), biotinylated on the 5′ end of the strand processed by integrase, was immobilized onto streptavidin-coated microtiter plates. Recombinant integrase (250 ng/well) was assembled onto the immobilized donor oligonucleotide in reaction buffer (20 mM Hepes, pH 7.6, 5 mM B-mercaptoethanol, 50 ug/mL bovine serum albumin) containing 30 mM MnCl2. Excess enzyme was removed, and the complexes were washed extensively prior to the addition of the target DNA substrate. The target DNA (0.75 pmoles/well) substrate was labeled on each 3′ end with FITC. After strand transfer, the FITC-labeled products were detected using an anti-FITC antibody conjugated with alkaline phosphatase (Roche) and a chemiluminescent substrate (Tropix CSPD with Sapphire II enhancer, Applied Biosystems). The assay was performed in a final concentration of 10% DMSO. To specifically evaluate inhibition of strand transfer, compounds were added after assembly, just prior to the addition of the target DNA.
The results of the integrase strand transfer assay are reported as IC50 values. IC50 values were determined using a sigmoidal dose-response equation. The formula used for calculating % inhibition was: % Inhibition=[1-(sample counts/average of positive control)]*100. […] Using GraphPad Prism or ActivityBase (IDBS) software IC50 was determined using following sigmoidal dose-response equation: Y=(A+((B−A)/(1+((C/X)^D))))

wild type NL-4.3 = assay: multi-cycle infection assay in MT-4 cells (MTT cytoprotection); type: cell-based, HIV-1; details: Human immunodeficiency virus 1, MT4, 144 h, read-out: EC50 (nM) multi-cycle
Experimental: The antiviral efficacies of the integrase inhibitor compounds of the invention were evaluated based on EC50 measures obtained from two different in vitro HIV infection assay using cultured MT-4 cells: (1) a multi-cycle infection where cells were infected with wild type NL-4.3) and (2) a single-cycle infection where the cells were infected with a luciferase-bearing, envelope defective (env-) NL-4.3 virus pseudotyped with HIV-1 env (HXBc2.
The incubation period for the multi-cycle infection assay was 6 days. Cell viability (cytoprotection) and EC50 were determined using the colorimetric MTT assay (A. J. Japour et al, Antimicrobial Agents and Chemotherapy, 37, 1095-1101, 1993 and R. Pauwels et al. Journal of Virological Methods, 20, 309-321, 1988).

[4] = protein binding by Rapid Equilibrium Dialysis (RED), 10% FBS-RPMI; type: in vitro ADME; details: bovine, 37° C.
Experimental: (§2) Protein binding was tested by Rapid Equilibrium Dialysis (RED) method (The RED (Rapid equilibrium Dialysis) Device inserts instruction manual. Pierce, Rockford Ill.). […] The red chamber was loaded with 0.3 mL of samples containing compounds. The white chamber contained 0.5 mL of D-PBS buffer only. The plate was incubated at 37° C. while shaking at 150 rpm for 5 hours. Aliquots from both chambers were analyzed by LC/MS/MS. The multi-cycle antiviral activity in the absence and presence of human serum was determined by p24 ELISA measurement after 6 days of NL4.3 virus infection.

[5] = protein binding by Rapid Equilibrium Dialysis (RED), human serum; type: in vitro ADME; details: 37° C., 100% HS
Experimental: as §2

NL4.3 virus = assay: multi-cycle antiviral activity in absence and presence of human serum, p24 ELISA; type: cell-based, HIV-1; details: for EC50: Human immunodeficiency virus 1, 144 h
Experimental: as §2

CYP2C9 = biological target: T2, CYP2C9 (Homo sapiens, UniProt P11712); assay: human CYP inhibition in human liver microsomes; type: in vitro ADME
T2 construct: the incubation medium contained 0.3 mg/mL human liver microsomes; from tissue; host or cells: human liver microsomes
T2 sequence (P11712 whole entry): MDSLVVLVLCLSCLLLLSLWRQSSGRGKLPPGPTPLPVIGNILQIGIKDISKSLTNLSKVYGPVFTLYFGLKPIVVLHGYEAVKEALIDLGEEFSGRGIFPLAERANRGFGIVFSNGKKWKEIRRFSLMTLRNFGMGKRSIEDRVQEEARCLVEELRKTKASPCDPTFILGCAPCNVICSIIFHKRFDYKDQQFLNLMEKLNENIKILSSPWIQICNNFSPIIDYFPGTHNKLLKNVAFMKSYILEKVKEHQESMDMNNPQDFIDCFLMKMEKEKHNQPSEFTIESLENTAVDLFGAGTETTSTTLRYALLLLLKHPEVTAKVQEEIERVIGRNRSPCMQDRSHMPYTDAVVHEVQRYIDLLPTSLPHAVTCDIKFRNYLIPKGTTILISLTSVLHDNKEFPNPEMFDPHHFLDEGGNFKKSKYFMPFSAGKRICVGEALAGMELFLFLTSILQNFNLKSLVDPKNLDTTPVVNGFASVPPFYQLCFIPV
Experimental: (§3) For the human CYP inhibition experiments, the incubation medium contained 0.3 mg/mL human liver microsomes, 100 mM phosphate buffer pH 7.4, 5 mM MgCl2, 1 mM EDTA. The respective substrates for CYP3A4, CYP2C9 and CYP2D6 were added at various concentrations in the presence or absence of the compounds tested. After pre-incubation, the reaction was initiated by the addition of NADPH at final concentration 1 mM. Incubation times were 10, 60 and 15 minutes for CYP3A4, CYP2C9 and CYP2D6, respectively (Walsky R L and Obach R S., Drug Metabolism and Disposition, 2004, 32, 647-660). GraphPad Prism software was used for data analysis.

CYP3A4 = biological target: T3, CYP3A4 (Homo sapiens, UniProt P08684); assay: human CYP inhibition in human liver microsomes; type: in vitro ADME; details: CYP3A4 (printed CYP34A)
T3 construct: the incubation medium contained 0.3 mg/mL human liver microsomes; from tissue; host or cells: human liver microsomes
T3 sequence (P08684 whole entry): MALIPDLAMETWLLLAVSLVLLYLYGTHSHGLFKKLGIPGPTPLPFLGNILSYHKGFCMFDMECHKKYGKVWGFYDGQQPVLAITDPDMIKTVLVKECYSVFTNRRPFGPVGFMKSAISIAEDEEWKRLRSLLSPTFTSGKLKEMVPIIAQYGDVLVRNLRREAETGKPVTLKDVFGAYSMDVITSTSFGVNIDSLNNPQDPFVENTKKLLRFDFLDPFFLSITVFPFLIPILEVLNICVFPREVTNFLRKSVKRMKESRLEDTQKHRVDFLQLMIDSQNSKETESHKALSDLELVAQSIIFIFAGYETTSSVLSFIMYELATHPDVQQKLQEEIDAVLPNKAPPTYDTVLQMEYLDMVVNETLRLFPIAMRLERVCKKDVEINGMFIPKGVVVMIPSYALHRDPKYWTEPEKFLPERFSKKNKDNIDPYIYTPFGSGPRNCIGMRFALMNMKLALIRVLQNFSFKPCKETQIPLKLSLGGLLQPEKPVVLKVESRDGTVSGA
Experimental: as §3

[6] = human liver microsomes, 1 mM NADPH and 1 mM UDPGA, read-out: Half-life in HLM (hrs) NADPH/UDPGA (converted)
[7] = human liver microsomes, 1 mM NADPH, read-out: Half-life in HLM (hrs) NADPH (converted)
[8] = human liver microsomes, 1 mM UDPGA, read-out: Half-life in HLM (hrs) UDPGA (converted)
[9] = MT-4 cells, wild type NL-4.3, 6 days, MTT

| SMILES | half-life at 1 μM [2, 6] | half-life at 1 μM [2, 7] | half-life at 1 μM [2, 8] | pEC50 (HIV-1 isolate 91US005) | pEC50 (HIV-1 isolate 94US33931N) | EC50 (wild type NL-4.3; [9]) | fraction unbound at 5 hours, 1 uM ([4]; 10% FBS-RPMI) | fraction unbound at 5 hours, 1 uM ([5]; human serum (100%)) | pKi (CYP3A4) | also measured |
| --- | --- | --- | --- | --- | --- | --- | --- | --- | --- | --- |
| O=C(NCc1ccc(F)cc1)c1cnc(C(=O)NO)c(O)c1CO [Example 2, N^5-(4-fluorobenzyl)-N^2,3-dihydroxy-4-(hydroxymethyl)pyridine-2,5-dicarboxamide] | 5.9 h | 5 h | 16 h | 7.12 | 6.91 | 358 nM | 0.681 | 0.155 | – | adsorption / PK profile (FIG. 1) [1]: high adsorption; pIC50 [3]: 6.52 |
| O=C(NCc1ccc(F)cc1)c1cnc(C(=O)NOCc2ccccc2)c(OCc2ccccc2)c1CO [Example 1, N^2,3-bis(benzyloxy)-N^5-(4-fluorobenzyl)-4-(hydroxymethyl)pyridine-2,5-dicarboxamide] | 3.9 h | 7.4 h | 19.7 h | – | – | > 10000 nM | 0.475 | 0.11 | 5.29 | Fold-change with HS (NL4.3 virus; EC50 with 40% HS versus 10% FBS): 2.1; EC50 (NL4.3 virus; 10% FBS + 40% HS, p24 ELISA after 6 days, read-out: EC50 (uM) 10% FBS + 40% HS): 0.481 µM; EC50 (NL4.3 virus; 10% FBS, p24 ELISA after 6 days, read-out: EC50 (uM) 10% FBS): 0.227 µM; pKi (CYP2C9): 4.20 |
| Cc1nnc(C(=O)NC(C)(C)c2nc(C(=O)NCc3ccc(F)cc3)c(O)c(=O)n2C)o1 [Raltegravir, reference compound] | – | – | – | – | – | – | – | – | – | half-life at 1 μM ([2]; microsomes, 1 mM NADPH and 1 mM UDPGA, read-out: Half-life in HLM (hrs) NADPH/UDPGA (converted)): 11 h; half-life at 1 μM ([2]; microsomes, 1 mM NADPH, read-out: Half-life in HLM (hrs) NADPH (converted)): 19.7 h; half-life at 1 μM ([2]; microsomes, 1 mM UDPGA, read-out: Half-life in HLM (hrs) UDPGA (converted)): 7.03 h; EC50 (NL4.3 virus; read-out: EC50 (uM) 10% FBS): 0.047 µM; EC50 (NL4.3 virus; read-out: EC50 (uM) 10% FBS + 40% HS): 0.064 µM; EC50 (wild type NL-4.3): 20 nM; fraction unbound at 5 hours, 1 uM ([4]; serum): 0.653; fraction unbound at 5 hours, 1 uM ([5]; serum): 0.133 |
| O=C(NCc1ccc2c(c1)OCO2)c1cnc(C(=O)NOCc2ccccc2)c(OCc2ccccc2)c1CO [Example 3, N^5-(benzo[d][1,3]dioxol-5-ylmethyl)-N2,3-bis(benzyloxy)-4-(hydroxymethyl)pyridine-2,5-dicarboxamide] | 1.95 h | 6.18 h | 3.8 h | 7.03 | 7.52 | > 10000 nM | – | – | 3.23 | – |
